From article PMC8066426 (iScience, 2021)

Columns and labels:
[1] = molecular target: T1, CorC (TpCorC) (Thermus parvatiensis, UniProt A0A109QFA5); assay: competitive displacement of mant-ATP; assay type: binding
T1 sequence (A0A109QFA5 207-348): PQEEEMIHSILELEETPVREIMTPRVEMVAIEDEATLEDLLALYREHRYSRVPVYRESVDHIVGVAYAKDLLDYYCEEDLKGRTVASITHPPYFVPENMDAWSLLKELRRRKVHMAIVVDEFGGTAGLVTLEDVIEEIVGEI

[2] = molecular target: T1, CorC (TpCorC); assay: FRET from endogenous Trp to bound mant fluorophore, saturation binding
[3] = molecular target: ATP-binding site mutant of the TpCorC cross-linking construct (T106C/C282A/Y255A/T336I) (Thermus parvatiensis); assay: cross-linking
[4] = molecular target: TpCorC inter-subunit cross-linking mutant (T106C/C282A) (Thermus parvatiensis); assay: cross-linking

## Nc1ncnc2c1ncn2[C@@H]1O[C@H](COP(=O)(O)OP(=O)(O)OP(=O)(O)O)[C@@H](O)[C@H]1O [ATP]
[1]
  IC50: 570 ± 80 nM

## CNc1ccccc1C(=O)O[C@H]1[C@@H](O)[C@H](n2cnc3c(N)ncnc32)O[C@@H]1CO[P@@](=O)(O)O[P@](=O)(O)OP(=O)(O)O [mant-ATP, 2′(3′)-O-(N-methylanthraniloyl)adenosine 5′-triphosphate]
[2]
  Kd: 1360 ± 100 nM

## ATP-binding site mutant of the TpCorC cross-linking construct (T106C/C282A/Y255A/T336I) (natural protein)
[3]
  stoichiometry N: 2

## TpCorC inter-subunit cross-linking mutant (T106C/C282A) (natural protein)
[4]
  stoichiometry N: 2
